Values after ≈ are worked out from the molar mass of the structure shown. Read-outs that look alike come from different tables or passages of the source.
Columns and labels:
E. coli = assay: Minimal Inhibitory Concentration (MIC) determination, 96 well plates; assay type: cell-based, Escherichia coli; conditions: Escherichia coli; HBI medium, 16 to 18 hours at 37°C; read-out: MIC (µg/ml) E. coli
How it was run: (§1)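 Cultures seeded at approximately 1x10^5 CFU/ml in Heart-Brain Infusion medium were exposed to five compound concentrations, five data points each, for 16 to 18 hours at 37°C. Growth at OD 600 nm was expressed as percent of control, and MIC values are given in µg/ml.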

B. subtilis Pol IIIC = target: T1, B. subtilis Pol IIIC (Bacillus subtilis, UniProt P13267); assay: Polymerase IIIC (Pol IIIC) assay, determination of Ki values; assay type: biochemical; conditions: Ki (µM) Pol IIIC, assay in absence of dGTP or dATP; Ki is the concentration that reduces control polymerase IIIC activity by 50 percent
T1 construct: made in house
T1 sequence (P13267 whole entry): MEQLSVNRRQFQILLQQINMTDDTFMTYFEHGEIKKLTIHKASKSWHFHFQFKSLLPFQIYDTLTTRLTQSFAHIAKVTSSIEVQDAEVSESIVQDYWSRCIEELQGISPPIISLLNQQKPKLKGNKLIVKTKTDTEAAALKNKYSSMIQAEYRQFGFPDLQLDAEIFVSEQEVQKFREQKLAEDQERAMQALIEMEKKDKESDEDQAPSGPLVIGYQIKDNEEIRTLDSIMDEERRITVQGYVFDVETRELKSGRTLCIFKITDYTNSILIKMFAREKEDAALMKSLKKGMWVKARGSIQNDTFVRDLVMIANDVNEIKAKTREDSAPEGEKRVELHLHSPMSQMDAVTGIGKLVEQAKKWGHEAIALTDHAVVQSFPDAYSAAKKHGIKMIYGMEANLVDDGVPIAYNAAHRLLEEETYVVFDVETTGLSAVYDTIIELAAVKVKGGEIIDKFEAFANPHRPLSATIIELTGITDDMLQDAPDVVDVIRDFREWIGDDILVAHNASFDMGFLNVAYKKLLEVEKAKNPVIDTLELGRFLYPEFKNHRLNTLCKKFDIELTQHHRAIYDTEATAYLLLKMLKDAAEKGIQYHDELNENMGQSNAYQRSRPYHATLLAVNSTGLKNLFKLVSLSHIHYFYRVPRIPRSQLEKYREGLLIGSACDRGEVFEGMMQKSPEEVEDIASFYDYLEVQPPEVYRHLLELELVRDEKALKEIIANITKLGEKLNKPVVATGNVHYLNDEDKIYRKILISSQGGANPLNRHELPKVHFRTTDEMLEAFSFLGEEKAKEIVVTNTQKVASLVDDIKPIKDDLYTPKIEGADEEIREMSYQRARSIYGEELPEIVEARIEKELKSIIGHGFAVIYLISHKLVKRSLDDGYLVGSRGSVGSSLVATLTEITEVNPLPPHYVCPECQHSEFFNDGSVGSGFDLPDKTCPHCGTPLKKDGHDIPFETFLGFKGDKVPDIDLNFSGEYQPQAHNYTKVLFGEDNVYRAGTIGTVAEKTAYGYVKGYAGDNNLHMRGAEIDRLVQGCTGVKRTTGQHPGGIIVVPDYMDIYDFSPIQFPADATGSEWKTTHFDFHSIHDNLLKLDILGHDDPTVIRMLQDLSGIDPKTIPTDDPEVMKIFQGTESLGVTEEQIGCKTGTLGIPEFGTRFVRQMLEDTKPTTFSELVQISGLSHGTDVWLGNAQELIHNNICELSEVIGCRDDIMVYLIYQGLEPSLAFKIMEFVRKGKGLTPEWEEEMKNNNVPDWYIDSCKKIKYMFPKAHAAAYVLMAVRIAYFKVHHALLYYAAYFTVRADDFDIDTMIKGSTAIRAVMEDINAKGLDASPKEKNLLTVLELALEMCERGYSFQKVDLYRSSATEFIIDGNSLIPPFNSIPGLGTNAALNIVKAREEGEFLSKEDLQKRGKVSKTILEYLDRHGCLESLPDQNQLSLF
How it was run: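 Isolated B. subtilis Pol IIIC (0.025–0.06 units) run 10 min at 30°C in 30 mM Tris pH 7.5, 10 mM Mg acetate, 4 mM DTT, 20% glycerol. Substrates were 0.4 mg/ml activated calf thymus DNA, 25 µM dNTPs and 10 µM [3H]dTTP, with dGTP or dATP omitted per compound structure.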

B. subtilis = assay: Minimal Inhibitory Concentration (MIC) determination, 96 well plates; assay type: cell-based, Bacillus subtilis; conditions: Bacillus subtilis; HBI medium, 16 to 18 hours at 37°C; read-out: MIC (µg/ml) B. subtilis
How it was run: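 Broth growth in Heart-Brain Infusion medium, seeded at about 1x10^5 CFU/ml, 16 to 18 hours at 37°C. Growth read at OD 600 nm as percent of untreated control; five concentrations per drug, five data points each, MIC reported in µg/ml.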

S. aureus = assay: as above; assay type: cell-based, Staphylococcus aureus; conditions: Staphylococcus aureus, read-out: MIC (µg/ml) S. aureus
How it was run: as §1

[1] = HBI medium, 16 to 18 hours at 37°C

Row | Compound | MIC (E. coli) | Ki (B. subtilis Pol IIIC) | MIC (B. subtilis) | MIC (S. aureus; [1]) | MIC (S. aureus; table of MSSA/MRSA strains)
1 | CCc1cc(Nc2cc(=O)n(CCCCN3CCN(c4c(F)cc5c(=O)c(C(=O)O)cn(C6CC6)c5c4F)CC3C)c(=O)[nH]2)ccc1C (stereo not drawn) [Compound 70, 3-{4-[1-(1-cyclopropyl-3-carboxy-4-oxo-6,8-difluoro-7-quinolyl)-3-methyl-4-piperazinyl]butyl}-6-(3-ethyl-4-methylanilino)uracil] | > 80 µg/mL | 0.019 µM | 0.156 µg/mL (≈ 0.235 µM) | 0.313 µg/mL (≈ 0.472 µM) | 0.39 µg/mL (≈ 0.588 µM)
2 | CCc1cc(Nc2cc(=O)n(CCCCN3CCN(c4cc5c(cc4F)c(=O)c(C(=O)O)cn5C4CC4)CC3)c(=O)[nH]2)ccc1C.CS(=O)(=O)O [Compound 10, 3-{4-[1-(1-cyclopropyl-3-carboxy-4-oxo-6-fluoro-7-quinolyl)-4-piperazinyl]butyl}-6-(3-ethyl-4-methylanilino)uracil methanesulfonate] | 5 µg/mL | 0.018 µM | 0.313 µg/mL | 0.625 µg/mL | 0.625 µg/mL
3 | CCc1cc(Nc2cc(=O)n(CCCCN3CCN(c4cc5c(cc4F)c(=O)c(C(=O)O)cn5C4CC4)CC3)c(=O)[nH]2)ccc1C [Compound 2, 3-{4-[1-(1-cyclopropyl-3-carboxy-4-oxo-6-fluoro-7-quinolyl)-4-piperazinyl]butyl}-6-(3-ethyl-4-methylanilino)uracil] | 2.5 µg/mL (≈ 3.96 µM) | 0.024 µM | 0.156 µg/mL (≈ 0.247 µM) | 0.625 µg/mL (≈ 0.991 µM) | 0.625 µg/mL (≈ 0.991 µM)

Reference: patent EP1401829B1, “NOVEL HETEROCYCLIC ANTIBACTERIAL COMPOUNDS” (Microbiotix, Inc., priority 2001, dated 2002)
